Measurements: patent US20140328840A1, “MARKER AND TARGET FOR RESPONSIVENESS AND RESISTANCE TO CANCER AGENTS” (The Provost, Fellows, Foundation Scholars, and the Other …, priority 2011, published 2014)

Columns and labels:
[1] = tested on: NmU mRNA in HCC1954 cells; assay: Short-term drug exposure, qPCR of NmU mRNA in conditioned medium and cells; format: cell-based; conditions: 48 hours; for induced NmU mRNA in CM / induced NmU mRNA in cells: HCC1954, 0.5 μM, vs untreated control
Protocol: (§1) Conditioned medium (CM) was collected, centrifuged and filtered, as previously described (1-2), prior to NmU mRNA and protein analysis.
(§2) Total RNA was isolated from cell lines and CM using TriReagent (Sigma-Aldrich). In order to remove any potential contaminating genomic DNA, RNA was treated with DNase enzymes and minus reverse transcriptase enzyme controls verified no DNA/pseudogene contamination of starting material. cDNA was prepared from 500ng cell-derived and 4 μl CM-derived total RNA, respectively.

[2] = tested on: SKBR3-LR, HCC1954-LR, T47D and MDA-MB-361 cells; assay: Effects of NmU siRNAs with HER-targeted drugs on proliferation (acid phosphatase); format: cell-based
Protocol: (§3) Two siRNAs, designated NmU-1 (SEQ ID NO: 3; 5′-[…]-3′) and NmU-2 (SEQ ID NO: 4; 5′-[…]-3′) (s225456 and s21351, respectively, Ambion, UK), (30 nM) were used to target NmU. Scrambled siRNA (SCR) (AM4611, Ambion, UK) was used as negative control. Transient transfections were harvested 72 hours post-transfection for RNA and protein extraction. NmU full-length cDNA was sub-cloned from pOTB7 (clone ID3502168, Open Biosystems, Ireland) by PCR into pcDNA 3.1(+) zeo-plasmid vector (Invitrogen, Ireland). The construct was verified by DNA sequencing. Mock controls used were of pcDNA3.1(+) plasmid lacking NmU cDNA. Lipofectamine 2000 (Invitrogen, Ireland) was used for transfection following the manufacturer's instructions. Stable transfectants were established by selecting with zeocin (50 μg/ml and 300 μg/ml for HCC1954 and SKBR3 transfected cells, respectively; based on initial assessment of the toxicity of zeocin on these cells) (Invitrogen, Ireland).
(§4) To investigate if knock-down of NmU affected response to HER-targeting, cell lines with acquired Lapatinib-resistance (SKBR3-LR, HCC1954-LR) and innately unresponsive (MDA-MB-361, T47D) were assessed. […] Similarly, fixed concentrations of Neratinib (1 μM) and Afatinib (0.5 μM) were used. These were cultured for 72 hours and subsequently assessed using acid phosphate analysis.

HCC1954 cells [3] = assay: Resistance to HER-targeted drugs after exogenous NmU treatment; format: cell-based; conditions: HCC1954, exogenous NmU (NmU-25) 48 hours; all drugs
Protocol: (§5) To assess if functional NmU receptors are expressed on cells, SKBR3 and HCC1954, (1×10^6 cells) were seeded in 25 cm^2 flask, allowed attach overnight and subsequently treated with 1 μM of NmU-25 (Bachem, Switzerland) for 24-48 hours.

NmU mRNA in SKBR3 cells = assay: Short-term drug exposure, qPCR of NmU mRNA in conditioned medium and cells; format: cell-based; conditions: SKBR3, 1 μM, 48 hours, vs untreated control CM
Protocol: as §1, §2

SKBR3-NmU cells = assay: Proliferation assay, NmU cDNA- versus mock-transfected cells; format: cell-based; conditions: SKBR3-NmU vs SKBR3-mock
Protocol: as §3
(§6) Cells with acquired-resistance compared to aged-parent cells and NmU cDNA-versus mock-transfected cells (HCC1954 variants, 2×10^3 cells/well; SKBR3 variants, 5×10^3 cells/well) were seeded for 24 hours prior to drug additions. […] Five days later, acid phosphatase assay was performed as previously detailed (3).

HCC1954-NmU cells = assay: as above; format: cell-based; conditions: HCC1954-NmU vs HCC1954-mock
Protocol: as §3, §6

SKBR3-LR cells = assay: Proliferation assay (acid phosphatase), Lapatinib-resistant SKBR3; format: cell-based
Protocol: (§7) SKBR3, HCC1954, MDA-MB-361, T47D cells, obtained from ATCC, were cultured in RPMI-1640 (Sigma-Aldrich) with 10% FCS (PAA) and 1% L-glutamine. […] Lapatinib-resistant SKBR3 and HCC1954 cells (SKBR3-LR, HCC1954-LR) were established by continuously exposing cells to Lapatinib, starting with 5 nM and incrementally increasing to 250 nM over 6 months. Neratinib-resistant SKBR3 and HCC1954 cells (SKBR3-NR, HCC1954-NR) resulted from continuously exposing cells to Neratinib, starting with 10 nM and incrementally increasing to 250 nM over 6 months.
as §6

MDA-MB-361 = conditions: cited from earlier work
SKBR3-Ag cells = assay: Proliferation assay (acid phosphatase), aged parent SKBR3; format: cell-based; conditions: Homo sapiens, SK-BR-3, 120 h, read-out: concentration that inhibits 50% of proliferation (IC50), five days
Protocol: as §7, §6

SKBR3 cells = conditions: cited from earlier work
HCC1954-LR cells = assay: Proliferation assay (acid phosphatase), Lapatinib-resistant HCC1954; format: cell-based
Protocol: as §7, §6

T47D cells = assay: Proliferation, previously determined IC50; format: cell-based; conditions: Homo sapiens, read-out: approximate IC50 concentration
Protocol: as §4

MDA-MB-361 cells = assay: Proliferation, previously determined IC50; format: cell-based; conditions: Homo sapiens; MDA-MB-361, previously determined; read-out: approximate IC50 concentration
Protocol: as §4

HCC1954 cells [4] = conditions: cited from earlier work
T47D = conditions: cited from earlier work
HCC1954-Ag cells = assay: Proliferation assay (acid phosphatase), aged parent HCC1954; format: cell-based; conditions: Homo sapiens, 120 h, read-out: concentration that inhibits 50% of proliferation (IC50), five days
Protocol: as §7, §6

HER2 = assay: Exogenous NmU treatment, HER2 expression; format: cell-based; conditions: 1 μM, 24-48 hours; SKBR3 and HCC1954 cells
Protocol: as §5
(§8) Total cellular proteins (30-40 μg, depending on the specific protein's abundance; but constant for any given protein) were resolved on 6-10% SDS-PAGE and transferred to PVDF membranes (Millipore, Ireland). Primary antibodies used included EGFR (Neomarker); HER2 (Calbiochem); Akt, p-Akt (Cell Signalling); NmU-R1 (Sigma-Aldrich); NmU-R2 (LifeSpan Biosciences); β-actin (Sigma-Aldrich). Membranes were incubated with appropriate horseradish peroxidase-conjugated secondary antibodies (Cell Signalling) and proteins were visualized by chemiluminescence (Millipore). Detection was performed with a Chemidoc exposure system (Bio-Rad Laboratories). ELISA kit for NmU (Peninsula Laboratories, US), HER2 (Calbiochem, US), p-HER2, EGFR, p-EGFR (R&D Systems, US) were used according to the manufacturer's instructions.

EGFR = assay: Exogenous NmU treatment, EGFR expression; format: cell-based; conditions: 1 μM, 24-48 hours
Protocol: as §5, §8

**Q.** What does the source list for `CN(C)C/C=C/C(=O)Nc1cc2c(Nc3ccc(F)c(Cl)c3)ncnc2cc1O[C@H]1CCOC1` [Afatinib]?
**A.** induced NmU mRNA in CM [1]: 3.3±0.49 fold; induced NmU mRNA in cells [1]: 3±0.38 fold; inhibition at 0.5 µM ([2]; 0.5 μM, 72 hours, NmU-1/NmU-2 siRNA vs SCR, range over cell lines and siRNAs, read-out: further inhibition of growth with NmU knock-down): 18 to 47%; level of resistance induced by exogenous NmU (HCC1954 cells [3]): 1.1 fold

**Q.** What does the source list for `CS(=O)(=O)CCNCc1ccc(-c2ccc3ncnc(Nc4ccc(OCc5cccc(F)c5)c(Cl)c4)c3c2)o1` [Lapatinib]?
**A.** levels of NmU mRNA detectable in CM ([1]; HCC1954, 1 μM, vs untreated control CM): significantly higher; levels of NmU mRNA detectable in CM (NmU mRNA in SKBR3 cells): significantly higher; anti-proliferative effects in NmU-transfected compared to mock-transfected cells (SKBR3-NmU cells): significantly compromised; anti-proliferative effects in NmU-transfected compared to mock-transfected cells (HCC1954-NmU cells): significantly compromised; further inhibition of proliferation with NmU knock-down ([2]; drug at IC50 concentration, 72 hours, NmU-1/NmU-2 siRNA vs SCR, range over cell lines and siRNAs): 12-49%; IC50 (SKBR3-LR cells; Homo sapiens, SK-BR-3, 120 h, read-out: concentration that inhibits 50% of proliferation (IC50), SKBR3-LR, five days): ~3000 nM; fold resistance (SKBR3-LR cells; SKBR3-LR in relation to SKBR3-Ag): 29.8±2.2 fold; level of resistance induced by exogenous NmU (HCC1954 cells [3]): 1.1 fold; innate sensitivity/resistance (MDA-MB-361): resistant; IC50 (SKBR3-Ag cells): 90 nM; innate sensitivity/resistance (SKBR3 cells): sensitive; fold resistance (HCC1954-LR cells; HCC1954-LR compared to HCC1954-Ag): 19.1±2.8 fold; IC50 (HCC1954-LR cells; Homo sapiens, HCC1954, 120 h, read-out: concentration that inhibits 50% of proliferation (IC50), HCC1954-LR, five days): ~5000 nM; IC50 (T47D cells): ~5000 nM; IC50 (MDA-MB-361 cells): ~1000 nM; innate sensitivity/resistance (HCC1954 cells [4]): sensitive; innate sensitivity/resistance (T47D): unresponsive; IC50 (HCC1954-Ag cells): 300 nM

**Q.** With `CCOc1cc2ncc(C#N)c(Nc3ccc(OCc4ccccn4)c(Cl)c3)c2cc1NC(=O)/C=C/CN(C)C` [Neratinib] as the compound, how does the “induced NmU mRNA in CM” value [1] read?
**A.** 3.6±1 fold

**Q.** What about the “induced NmU mRNA in cells” value [1] of the same compound?
**A.** 3.6±0.54 fold

**Q.** And the “anti-proliferative effects in NmU-transfected compared to mock-transfected cells” value (SKBR3-NmU cells)?
**A.** significantly compromised

**Q.** What about the “anti-proliferative effects in NmU-transfected compared to mock-transfected cells” value (HCC1954-NmU cells) of the same compound?
**A.** significantly compromised

**Q.** What about the inhibition at 1 µM ([2]; 72 h, read-out: further inhibition of growth with NmU knock-down) of the same compound?
**A.** 19 to 58%

**Q.** And the “level of resistance induced by exogenous NmU” value (HCC1954 cells [3])?
**A.** 1.1 fold

**Q.** With “NmU-25: exogenous NeuromedinU 25 amino acid active peptide (Bachem) (FRVDEEFQSPFASQSRGYFLFRPRN)” as the compound, how does the “expression of HER2 protein” value (HER2) read?
**A.** induced expression

**Q.** And the “expression of EGFR protein” value (EGFR; SKBR3 and HCC1954 cells)?
**A.** induced expression

**Q.** And the pEGFR (EGFR; SKBR3 cells)?
**A.** induced expression
